Data taken from ChEMBL document CHEMBL4219224, “Structure based drug design and in vitro metabolism study: Discovery of N-(4-methylthiophenyl)-N,2-dimethyl-cyclopenta[d]pyrimidine as a potent microtubule targeting agent” (Bioorg Med Chem, 2018).

Tests used:
Type in all cases: functional
IGROV-1 = assay: Growth inhibition of human IGROV1 cells incubated for 48 hrs by sulforhodamine B assay; settings: IGROV-1, 48 h
TK-10 = assay: Growth inhibition of human TK10 cells incubated for 48 hrs by sulforhodamine B assay; settings: TK-10, 48 h
SK-MEL-2 = assay: Growth inhibition of human SK-MEL-2 cells incubated for 48 hrs by sulforhodamine B assay; settings: SK-MEL-2, 48 h
SF-539 = assay: Growth inhibition of human SF539 cells incubated for 48 hrs by sulforhodamine B assay; settings: SF-539, 48 h
MDA-MB-435 = assay: Growth inhibition of human MDA-MB-435 cells incubated for 48 hrs by sulforhodamine B assay; settings: MDA-MB-435, 48 h
SW-620 = assay: Growth inhibition of human SW620 cells incubated for 48 hrs by sulforhodamine B assay; settings: SW-620, 48 h
OVCAR-5 = assay: Growth inhibition of human OVCAR5 cells incubated for 48 hrs by sulforhodamine B assay; settings: OVCAR-5, 48 h
HL-60(TB) = assay: Growth inhibition of human HL-60(TB) cells incubated for 48 hrs by sulforhodamine B assay; settings: HL-60, 48 h
SK-OV-3 = assay: Growth inhibition of human SKOV3 cells incubated for 48 hrs by sulforhodamine B assay; settings: SK-OV-3, 48 h
MDA-MB-231 = assay: Growth inhibition of human MDA-MB-231 cells incubated for 48 hrs by sulforhodamine B assay; settings: MDA-MB-231, 48 h
COLO 205 = assay: Growth inhibition of human COLO205 cells incubated for 48 hrs by sulforhodamine B assay; settings: COLO 205, 48 h
HOP-92 = assay: Growth inhibition of human HOP92 cells incubated for 48 hrs by sulforhodamine B assay; settings: HOP-92, 48 h
NCI-H322M = assay: Growth inhibition of human NCI-H322M cells incubated for 48 hrs by sulforhodamine B assay
A549 = assay: Growth inhibition of human A549/ATCC cells incubated for 48 hrs by sulforhodamine B assay; settings: A549, 48 h
HCC 2998 = assay: Growth inhibition of human HCC2998 cells incubated for 48 hrs by sulforhodamine B assay; settings: HCC 2998, 48 h
OVCAR-4 = assay: Growth inhibition of human OVCAR4 cells incubated for 48 hrs by sulforhodamine B assay; settings: OVCAR-4, 48 h
SR = assay: Growth inhibition of human SR cells incubated for 48 hrs by sulforhodamine B assay
NCI/ADR-RES = assay: Growth inhibition of human NCI/ADR-RES cells incubated for 48 hrs by sulforhodamine B assay
786-0 = assay: Growth inhibition of human 786-0 cells incubated for 48 hrs by sulforhodamine B assay; settings: 786-0, 48 h
RPMI-8226 = assay: Growth inhibition of human RPMI8226 cells incubated for 48 hrs by sulforhodamine B assay; settings: RPMI-8226, 48 h
SF-268 = assay: Growth inhibition of human SF268 cells incubated for 48 hrs by sulforhodamine B assay; settings: SF-268, 48 h
NCI-H522 = assay: Growth inhibition of human NCI-H522 cells incubated for 48 hrs by sulforhodamine B assay; settings: NCI-H522, 48 h
BT-549 = assay: Growth inhibition of human BT549 cells incubated for 48 hrs by sulforhodamine B assay; settings: BT-549, 48 h
NCI-H460 = assay: Growth inhibition of human NCI-H460 cells incubated for 48 hrs by sulforhodamine B assay; settings: NCI-H460, 48 h
MDA-MB-468 = assay: Growth inhibition of human MDA-MB-468 cells incubated for 48 hrs by sulforhodamine B assay; settings: MDA-MB-468, 48 h
KM12 = assay: Growth inhibition of human KM12 cells incubated for 48 hrs by sulforhodamine B assay; settings: KM12, 48 h
K562 = assay: Growth inhibition of human K562 cells incubated for 48 hrs by sulforhodamine B assay; settings: K562, 48 h
HCT-116 = assay: Growth inhibition of human HCT116 cells incubated for 48 hrs by sulforhodamine B assay; settings: HCT-116, 48 h
UACC-62 = assay: Growth inhibition of human UACC62 cells incubated for 48 hrs by sulforhodamine B assay; settings: UACC-62, 48 h
CAKI-1 = assay: Growth inhibition of human Caki1 cells incubated for 48 hrs by sulforhodamine B assay; settings: CAKI-1, 48 h
U-251 = assay: Growth inhibition of human U251 cells incubated for 48 hrs by sulforhodamine B assay; settings: U-251, 48 h
CCRF-CEM = assay: Growth inhibition of human CCRF-CEM cells incubated for 48 hrs by sulforhodamine B assay
Hs-578T = assay: Growth inhibition of human Hs578T cells incubated for 48 hrs by sulforhodamine B assay
M14 = assay: Growth inhibition of human M14 cells incubated for 48 hrs by sulforhodamine B assay; settings: M14, 48 h
SNB-75 = assay: Growth inhibition of human SNB75 cells incubated for 48 hrs by sulforhodamine B assay; settings: SNB-75, 48 h
DU-145 = assay: Growth inhibition of human DU145 cells incubated for 48 hrs by sulforhodamine B assay; settings: DU-145, 48 h
OVCAR-8 = assay: Growth inhibition of human OVCAR8 cells incubated for 48 hrs by sulforhodamine B assay; settings: OVCAR-8, 48 h
SNB-19 = assay: Growth inhibition of human SNB19 cells incubated for 48 hrs by sulforhodamine B assay; settings: SNB-19, 48 h
SN12C = assay: Growth inhibition of human SN12C cells incubated for 48 hrs by sulforhodamine B assay
SF-295 = assay: Growth inhibition of human SF295 cells incubated for 48 hrs by sulforhodamine B assay; settings: SF-295, 48 h
HCT-15 = assay: Growth inhibition of human HCT15 cells incubated for 48 hrs by sulforhodamine B assay; settings: HCT-15, 48 h
NCI-H23 = assay: Growth inhibition of human NCI-H23 cells incubated for 48 hrs by sulforhodamine B assay; settings: NCI-H23, 48 h
OVCAR-3 = assay: Growth inhibition of human OVCAR3 cells incubated for 48 hrs by sulforhodamine B assay; settings: OVCAR-3, 48 h
UO-31 = assay: Growth inhibition of human UO31 cells incubated for 48 hrs by sulforhodamine B assay; settings: UO-31, 48 h
MOLT-4 = assay: Growth inhibition of human MOLT4 cells incubated for 48 hrs by sulforhodamine B assay; settings: MOLT-4, 48 h
SK-MEL-28 = assay: Growth inhibition of human SK-MEL-28 cells incubated for 48 hrs by sulforhodamine B assay; settings: SK-MEL-28, 48 h
NCI-H226 = assay: Growth inhibition of human NCI-H226 cells incubated for 48 hrs by sulforhodamine B assay; settings: NCI-H226, 48 h
HOP-62 = assay: Growth inhibition of human HOP62 cells incubated for 48 hrs by sulforhodamine B assay; settings: HOP-62, 48 h
ACHN = assay: Growth inhibition of human ACHN cells incubated for 48 hrs by sulforhodamine B assay
SK-MEL-5 = assay: Growth inhibition of human SK-MEL-5 cells incubated for 48 hrs by sulforhodamine B assay; settings: SK-MEL-5, 48 h
PC-3 = assay: Growth inhibition of human PC3 cells incubated for 48 hrs by sulforhodamine B assay; settings: PC-3, 48 h
RXF 393 = assay: Growth inhibition of human RXF393 cells incubated for 48 hrs by sulforhodamine B assay; settings: RXF 393, 48 h
EKVX = assay: Growth inhibition of human EKVX cells incubated for 48 hrs by sulforhodamine B assay
Malme-3M = assay: Growth inhibition of human MALME-3M cells incubated for 48 hrs by sulforhodamine B assay
LOX IMVI = assay: Growth inhibition of human LOXIMVI cells incubated for 48 hrs by sulforhodamine B assay
HT-29 = assay: Growth inhibition of human HT-29 cells incubated for 48 hrs by sulforhodamine B assay; settings: HT-29, 48 h
MCF7 = assay: Growth inhibition of human MCF7 cells incubated for 48 hrs by sulforhodamine B assay; settings: MCF7, 48 h
A498 = assay: Growth inhibition of human A498 cells incubated for 48 hrs by sulforhodamine B assay; settings: A498, 48 h

CC(=O)O[C@H]1C(=O)[C@@]2(C)[C@H]([C@H](OC(=O)c3ccccc3)[C@]3(O)C[C@H](OC(=O)[C@H](O)[C@@H](NC(=O)c4ccccc4)c4ccccc4)C(C)=C1C3(C)C)[C@]1(OC(C)=O)CO[C@@H]1C[C@@H]2O [PACLITAXEL]
GI50 (IGROV-1): 6.3 nM
GI50 (TK-10): 19.9 nM
GI50 (SK-MEL-2): 400 nM
GI50 (SF-539): 5 nM
GI50 (MDA-MB-435): 4 nM
GI50 (SW-620): 4 nM
GI50 (OVCAR-5): 7.9 nM
GI50 (HL-60(TB)): 4 nM
GI50 (SK-OV-3): 6.3 nM
GI50 (MDA-MB-231): 12.5 nM
GI50 (COLO 205): 7.9 nM
GI50 (HOP-92): 25 nM
GI50 (NCI-H322M): 12.5 nM
GI50 (A549): 6.3 nM
GI50 (HCC 2998): 1 nM
GI50 (OVCAR-4): 630 nM
GI50 (SR): 6.3 nM
GI50 (NCI/ADR-RES): 630 nM
GI50 (786-0): 39 nM
GI50 (RPMI-8226): 19.9 nM
GI50 (SF-268): 5 nM
GI50 (NCI-H522): 15.8 nM
GI50 (BT-549): 4 nM
GI50 (NCI-H460): 6.3 nM
GI50 (MDA-MB-468): 12.5 nM
GI50 (KM12): 5 nM
GI50 (K562): 6.3 nM
GI50 (HCT-116): 4 nM
GI50 (UACC-62): 5 nM
GI50 (CAKI-1): 158 nM
GI50 (U-251): 6.3 nM
GI50 (CCRF-CEM): 5 nM
GI50 (Hs-578T): 5 nM
GI50 (M14): 5 nM
GI50 (SNB-75): 7.9 nM
GI50 (DU-145): 6.3 nM
GI50 (OVCAR-8): 7.9 nM
GI50 (SNB-19): 10 nM
GI50 (SN12C): 6.3 nM
GI50 (SF-295): 25 nM
GI50 (HCT-15): 125 nM
GI50 (NCI-H23): 6.3 nM
GI50 (OVCAR-3): 4 nM
GI50 (UO-31): 125 nM
GI50 (MOLT-4): 5 nM
GI50 (SK-MEL-28): 400 nM
GI50 (NCI-H226): 3.9 nM
GI50 (HOP-62): 19 nM
GI50 (ACHN): 158 nM
GI50 (SK-MEL-5): 5 nM
GI50 (PC-3): 6.3 nM
GI50 (RXF 393): 15.8 nM
GI50 (EKVX): 79 nM
GI50 (Malme-3M): 50 nM
GI50 (LOX IMVI): 5 nM
GI50 (HT-29): 5 nM
GI50 (MCF7): 4 nM
GI50 (A498): 7.9 nM
